Common to all, as to format: cell-based
Assay [1] has as its system HCT 116 (colon), NCIH460 (lung) and U251 (glioma) cell lines. As to the kind of experiment: Anti-cancer screen (MTT growth inhibition, 48 hours).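 Also: mean GI50 across the three cell lines.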 The following applies: Homo sapiens; HCT 116, NCIH460 and U251 cell lines; MTT after 48 hours of incubation. The procedure:
The experimental drugs were screened for anti-cancer activity in three cell lines using five concentrations for each compound. The cell lines—HCT 116 (colon), NCIH460 (lung) and U251 (glioma) were maintained in DMEM containing 10% fetal bovine serum. 96-well microtiter plates are inoculated with cells in 100 μL of cell suspension (5×10^4 cells/mL) for 24 hours at 37° C., 5% CO2, 95% air and 100% relative humidity. A separate plate with these cell lines is also inoculated to determine cell viability before the addition of the compounds (T0)
Following 24-hour incubation, test compounds were added to the 96 well plates. Each plate contains one of the above cell lines and the following samples in triplicate: five different dilutions (0.01, 0.1, 1, 10 and 100 μM) of four test compounds, appropriate dilutions of a cytotoxic standard and growth medium (untreated) wells. Test compounds were dissolved in DMSO to prepare 20 mM stock solutions on the day of drug addition and serial dilutions were carried out in complete growth medium at 2× strength, such that 100 μL added to the wells gave final concentrations (0.01, 0.1, 1, 10 and 100 μM) in the well. SAHA was used as the standard drug in these experiments.
For T0 measurement, 24 hours after seeding the cells, 20 μL of 3-(4,5-dimethyl-2-thiazolyl)-2,5-diphenyl-2H-tetrazolium (MTT) solution per well was added to the ‘T0’ plate and incubated for 3 hours at 37° C. in a CO2 incubator. The plate containing cells and test compounds was treated similarly after 48 hours of incubation. After 3 hours of MTT addition, well contents were aspirated carefully followed by addition of 150 μL DMSO per well. Plates were agitated to ensure dissolution of the formazan crystals in DMSO and absorbance was read at 570 nm (A570).
Percent growth (PG) is calculated relative to the control and zero measurement wells (T0) as follows:
PG values are plotted against drug concentration to derive the following: GI50 is the concentration required to decrease PG by 50% vs control; TGI is the concentration required to decrease PG by 100% vs control and LC50 is the concentration required to decrease PG by 50% vs T0. (Mosmann T. Rapid colorimetric assay for cellular growth and survival: application to proliferation and cytotoxicity assays. (J. Immunol. Methods. 1983, 65 (1-2), 55-63; Anne Monks et al); feasibility of high-flux anticancer drug screen using a diverse panel of cultured human tumor cell lines”. (JNCI, Vol. 83, No. 11, 1991). Results for growth inhibition of synthesized compounds are given in Table-1.

Assay [2] concerns pSTAT3 in HEPG2 (liver cancer) cells induced by IL-6. The assay can be described thus: Inhibition of pSTAT3 (IL-6 induced phosphorylation of STAT3, Phospho-STAT3 (Tyr705) Sandwich ELISA). The settings on record: Homo sapiens, 4 hours compound, then IL-6 (10 ng/mL) 30 minutes. As for the experimental part: The experimental drugs were tested for their effect on phosphorylation of STAT3 in HEPG2 (liver cancer) cells induced by IL-6. Test compounds were dissolved in DMSO at 20 mM and diluted in a growth medium at 2× strength. Final DMSO concentration was less than 0.5%. 100 μL of cell suspension (10×10^4 cells/mL) was added to the wells of 96 well plates and allowed to adhere for 24 hours in a CO2 incubator at 37° C. Following overnight incubation, the culture medium was replaced with 100 μL of fresh growth medium and 100 μL of test compound (s), standard (Curcumin) and growth medium (untreated) wells. The plates were incubated in CO2 incubator at 37° C. for 4 hours. After compound treatment, IL-6 (10 ng/mL) was added to the wells and incubated for 30 minutes to induce pSTAT3.
At the end of the 30 minutes incubation, cells were rinsed with ice-cold PBS and lysed with 1× Cell lysis buffer containing 1 mM PMSF (provided in the kit) on ice for 5 minutes. The cells were scraped off and transferred to an appropriate tube, sonicated on ice and centrifuged for 10 minutes at 4° C. The supernatant (cell lysate) was collected and stored at −80° C. and the levels of pSTAT3 were measured in the cell lysate by Path Scan Phospho-STAT3 (Tyr705) Sandwich ELISA kit (Cell Signaling, Cat No. 7300) by following the kit instructions.
(ELISA stands for enzyme-linked immunosorbent assay.)

Assay [3] deals with IL-6 in supernatant of NCIH 460 cells. As to the kind of experiment: Measuring IL-6 in culture supernatants (ELISA). The settings on record: Homo sapiens, NCI-H460, 5 hours incubation.

Each structure is given as a SMILES string.

Usually GI50 stands for the concentration giving 50% growth inhibition. Read a high GI50 as less potent growth inhibition. As usually defined, the inhibition is the relative decrease from the control value, in per cent. `COC(=O)/C(=C/c1ccc(OCC(O)CNCCOc2ccccc2OC)cc1)c1ccc(C)cc1` (centres unmarked) [Example 38, 3-{4-[3-(2-Methoxyphenoxyethylamino)-2-hydroxypropoxy]phenyl}-2-(4-methylphenyl)acrylic acid methyl ester]: the GI50 in assay [1] is 9 µM. Besides, the inhibition at 10 µM in assay [2] was 77.2%; in assay [3] it was 69.1%.
The matching figures for `COC(=O)/C(=C/c1ccc(OCC(O)CNCc2ccc(OC)cc2OC)cc1)c1ccc(C)cc1` (centres unmarked) [Example 37, 3-{4-[3-(2,4-Dimethoxybenzylamino)-2-hydroxypropoxy]phenyl}-2-(4-methylphenyl)acrylic acid methyl ester]: 6.2 µM, 42% and 68.1%.
In the same order, the values of `COC(=O)/C(=C/c1ccc(OCC(O)CNCc2ccc(OC)cc2OC)cc1)c1cccs1` (centres unmarked) [Example 40, 3-{4-[3-(2,4-Dimethoxybenzylamino)-2-hydroxypropoxy]phenyl}-2-(thiophen-2-yl)acrylic acid methyl ester] are 9.7 µM, 71% and 70.5%.
In the same order, the values of `COC(=O)/C(=C/c1ccc(OCC(O)CNCc2ccc(OC)cc2OC)cc1)c1ccc(F)cc1` (centres unmarked) [Example 35, 3-{4-[3-(2,4-Dimethoxybenzylamino)-2-hydroxypropoxy]phenyl}-2-(4-fluorophenyl)acrylic acid methyl ester] are 5.1 µM, 32.7% and 72.7%.
Compound `COC(=O)/C(=C/c1ccccc1OCC(O)CNCc1ccccc1)c1ccc(OC)cc1` (centres unmarked) [Example 43, 3-{2-[3-(Benzylamino)-2-hydroxypropoxy]phenyl}-2-(4-methoxyphenyl)acrylic acid methyl ester] showed a GI50 in assay [1] of 0.86 µM. Further, the results for the inhibition at 10 µM in assay [2] and in assay [3] were 46.4% and 9.6%, respectively.
In the same order, the values of `COC(=O)/C(=C/c1ccc(OCC(O)CNCc2ccccc2)cc1)c1cccc(Cl)c1` (centres unmarked) [Example 49, 3-{4-[3-(Benzylamino)-2-hydroxypropoxy]phenyl}-2-(3-chlorophenyl)acrylic acid methyl ester] are 2.1 µM, 58.4% and 56%.
In assay [2], `COC(=O)/C(=C/c1ccc(C)s1)c1ccc(OCC(O)CNCCOc2ccccc2OC)cc1` (centres unmarked) [Example 57, 2-{4-[3-(2-Methoxyphenoxyethylamino)-2-hydroxypropoxy]phenyl}-3-(5-methylthiophen-2-yl)acrylic acid methyl ester] registered an inhibition at 10 µM of 66.5%.
Still for that read-out and setting: with `COc1ccc(CNCC(O)COc2ccc(/C(=C\c3ccc(F)c(F)c3)C(N)=O)cc2)c(OC)c1` (centres unmarked) [Example 64, 2-{4-[3-(2,4-Dimethoxybenzylamino)-2-hydroxypropoxy]phenyl}-3-(3,4-difluorophenyl)acrylamide] the figure was 32.2%.

For the origin of these results see patent US20100298402A1, “STILBENE DERIVATIVES AS PSTAT3/IL-6 INHIBITORS” (ORCHID RESEARCH LABORATORIES LIMITED, priority 2007, published 2010).
